From PMC12526218, “Design, Synthesis and Herbicidal Activity of 1,2,4-Oxadiazole Compounds as Novel Light-Dependent Protochlorophyllide Oxidoreductase Inhibitors” (Molecules, 2025) come the findings set out here.

This assay has as its target Light-dependent protochlorophyllide oxidoreductase (AtLPOR). Nature of the assay: Plant LPOR ELISA kit on Arabidopsis leaf extract, IC50. It counts as biochemical, Arabidopsis thaliana.
`O=[N+]([O-])c1ccc(-c2noc(COCc3ccccc3)n2)cc1` [5j, 5-((benzyloxy)methyl)-3-(4-nitrophenyl)-1,2,4-oxadiazole] gave a half-inhibitory concentration (IC50) of 111 µM.

`O=[N+]([O-])c1cccc(-c2noc(COCc3ccccc3)n2)c1` [5k, 5-((benzyloxy)methyl)-3-(3-nitrophenyl)-1,2,4-oxadiazole] came in with a half-maximal inhibitory concentration (IC50) of 83.6 µM.

Take `c1ccc(COCc2nc(-c3ccc(OCc4ccccc4)cc3)no2)cc1` [5q, 5-((benzyloxy)methyl)-3-(4-(benzyloxy)phenyl)-1,2,4-oxadiazole]: the half-maximal inhibitory concentration (IC50) is 17.6 µM.
